{"source": "patent US20200032125A1", "about": "“COMBINED USES OF A PHOSPHOROUS COMPOUND FOR IRON SULPHIDE DISSOLUTION AND BACTERIAL CONTROL” (RHODIA OPERATIONS, priority 2016, published 2020)", "tested_on": "general heterotrophic bacteria (GHB)", "conditions": "iron sulphide present; same level of THPS as the control", "data": [{"substance": "tetrakis (hydroxymethyl) phosphonium sulphate [THPS]", "values": [{"measurement": "bacterial kill (reduction in colony forming units per ml) versus control sample without iron sulphide", "value": "bacterial kill is still achieved"}]}]}
